Results: US11946094B2, “Combination therapies and methods of use thereof” (Augusta University Research Institute, Inc., priority 2017, dated 2024)
Counter-ions that a name gives are not always drawn.

tested on: OVCAR-8 cells; assay: Drug-siRNA combination screen: 346-compound anticancer library at 100 nM, CCK-8 viability; conditions: not given

Compound	Score (sum of observed SD values for 18 genes)
Nc1nc(F)nc2c1ncn2[C@@H]1O[C@H](COP(=O)(O)O)[C@@H](O)[C@@H]1O [Fludarabine Phosphate]	−11.05 SD
CC[C@H](CO)Nc1nc(NCc2ccccc2)c2ncn(C(C)C)c2n1 [Seliciclib]	−1.72 SD

same assay, conditions: OVCAR-8; 12 tested HDACi

Compound	number of tested HDACi highly synergistic with the gene knockdown
SLC7A11: siRNA knocking down SLC7A11; sense GGCUGAUUUAUCUUCGAUAtt (SEQ ID NO 31) (sense GGCUGAUUUAUCUUCGAUANN; antisense UAUCGAAGAUAAAUCAGCCNN; listed as RNA, chemistry not given here)	at least six

same assay, conditions: OVCAR-8; 346 compounds

Compound	number of antagonistic/additive or highly antagonistic compounds with the gene knockdown
SLC7A11: siRNA knocking down SLC7A11; sense GGCUGAUUUAUCUUCGAUAtt (SEQ ID NO 31) (sense GGCUGAUUUAUCUUCGAUANN; antisense UAUCGAAGAUAAAUCAGCCNN; listed as RNA, chemistry not given here)	Twelve or fewer

same assay, conditions: OVCAR-8; drug 100 nM plus siRNA knockdown of each of 18 genes; distance VAB−VA×VB in SD; single gene contributes at most +5 / −5; negative = synergy, positive = antagonism

Compound	Score (sum of observed SD values for 18 genes)
C[C@@H]1C[C@H]2[C@@H]3CCC4=CC(=O)C=C[C@]4(C)[C@@]3(F)[C@@H](O)C[C@]2(C)[C@@]1(O)C(=O)CO [Dexamethasone]	−3.28 SD
CN(C)Cc1c(C(=O)NCCOc2ccc(C(=O)NO)cc2)oc2ccccc12 [PCI-24781]	-54.91 SD
CCN(CCCOc1ccc2c(Nc3cc(CC(=O)Nc4cccc(F)c4)n[nH]3)ncnc2c1)CCOP(=O)(O)O [Barasertib]	20.03 SD
WYE-354	−13.86 SD
CCC(CC)CC1(C(=O)Nc2ccccc2SC(=O)C(C)C)CCCCC1 [Dalcetrapid]	−31.1 SD
CC(C)C[C@H](NC(=O)CNC(=O)c1cc(Cl)ccc1Cl)B(O)O [Ixazomib]	-52.76 SD
CC(=O)c1c(C)c2cnc(Nc3ccc(N4CCNCC4)cn3)nc2n(C2CCCC2)c1=O [Palbociclib]	−30.45 SD
CCOc1ccc(Cc2cc([C@@H]3O[C@H](CO)[C@@H](O)[C@H](O)[C@H]3O)ccc2Cl)cc1 [Dapagliflozin]	−15.72 SD
C[C@]1(O)C[C@@H](c2nc(-c3ccc4ccc(-c5ccccc5)nc4c3)c3c(N)nccn32)C1 [Linsitinib]	−28.72 SD
C[C@@H](N)[C@H]1CC[C@H](C(=O)Nc2ccncc2)CC1.Cl.Cl [Y-27632 2HCI]	−28.91 SD
C=CCn1c(=O)c2cnc(Nc3ccc(N4CCN(C)CC4)cc3)nc2n1-c1cccc(C(C)(C)O)n1 [MK-1775]	-64.04 SD
Nc1ccccc1NC(=O)c1ccc(CNc2nccc(-c3cccnc3)n2)cc1 [Mocetinostat]	1.27 SD
C[C@H]1COC2(CCN(c3nc(=O)c4cc(C(F)(F)F)cc([N+](=O)[O-])c4s3)CC2)O1 [BTZ043]	−13.06 SD
CN1CCC(CNc2ccc3ncc(-c4cccc(OC(F)(F)F)c4)n3n2)CC1 [SGI - 1776]	−12.21 SD
Cc1c[nH]c(-c2cnc(NCCNc3ccc(C#N)cn3)nc2-c2ccc(Cl)cc2Cl)n1 [CHIR-99021]	−2.4 SD
Cn1cnc([N+](=O)[O-])c1Sc1ncnc2nc[nH]c12 [Azathioprine]	−28.48 SD
COc1ccc2c(c1OC)N=C(NC(=O)c1cccnc1)N1CCN=C21 [PIK-90]	−44.52 SD
c1ccc(-c2nn3c(c2-c2ccnc4cc(OCCN5CCOCC5)ccc24)CCC3)nc1 [LY2109761]	−40.45 SD
Cc1nc(-c2ccc(OCC(C)C)c(C#N)c2)sc1C(=O)O [Febuxostat]	−18.04 SD
CN(C)Cc1ccc(-c2nc3cccc4c3n2CCNC4=O)cc1 [AG14361]	2.72 SD
COc1ncc(-c2ccc3nccc(-c4ccnnc4)c3c2)cc1NS(=O)(=O)c1ccc(F)cc1F [GSK2126458]	−22.4 SD
C/C(=C\C(=O)Nc1ccccc1C(=O)O)c1ccc2ccccc2c1 [BIBR 1532]	−16.4 SD
Cc1cc2c(C(C)C)c(O)c(O)c(C=O)c2c(O)c1-c1c(C)cc2c(C(C)C)c(O)c(O)c(C=O)c2c1O [Gossypol]	−13.34 SD
C[C@@H]1CN(CC(=O)Nc2ccc3c(c2)Cc2cccc(-c4cc(=O)cc(N5CCOCC5)o4)c2S3)C[C@H](C)O1 [KU-60019]	−25.5 SD
O=C(O)c1ccc2c(c1)nc(Nc1cccc(Cl)c1)c1ccncc12 [Silmitasertib]	−4.51 SD
CCC(=O)N1CCN(c2ccc(-n3c(=O)ccc4cnc5ccc(-c6cnc7ccccc7c6)cc5c43)cc2C(F)(F)F)CC1 [Torin 1]	−32.55 SD
Cc1ccccc1-n1c(Cn2cnc3c(N)ncnc32)nc2cccc(C)c2c1=O [IC - 87114]	14.65 SD

Compound	Score (sum of observed SD values for 18 genes)
C=C1/C(=C\C=C2/CCC[C@]3(C)[C@@H]([C@H](C)/C=C/[C@H](C)C(C)C)CC[C@@H]23)C[C@@H](O)C[C@@H]1O [Doxercalciferol]	−0.53 SD
O=S(=O)(O)CCS [Mesna]	−15.88 SD
COc1cc2nccc(Oc3ccc(NC(=O)Nc4cc(C)on4)c(Cl)c3)c2cc1OC [Tivozanib]	−16.34 SD
COc1cc(Nc2ncc3c(n2)-c2ccc(Cl)cc2C(c2c(F)cccc2OC)=NC3)ccc1C(=O)O [Alisertib]	−2.8 SD
C[C@H](NC(=O)Cc1cc(F)cc(F)c1)C(=O)N[C@H](C(=O)OC(C)(C)C)c1ccccc1 [DAPT-(GSI-IX)]	12.69 SD
Cc1csc(-c2nnc(Nc3ccc(Oc4ncccc4-c4ccnc(N)n4)cc3)c3ccccc23)c1 [AMG 900]	11.64 SD
O=C(NCCCNc1nc(Nc2cccc(NC(=O)N3CCCC3)c2)ncc1I)c1cccs1 [BX-795]	−14.94 SD
Nc1nc(Nc2ccc(S(N)(=O)=O)cc2)nn1C(=O)c1c(F)cccc1F [JNJ - 7706621]	5.07 SD
O=C1[C@H](CC[C@H](O)c2ccc(F)cc2)[C@@H](c2ccc(O)cc2)N1c1ccc(F)cc1 [Ezetimibe]	−5.31 SD
CN(C)C/C=C/C(=O)Nc1cc2c(Nc3ccc(F)c(Cl)c3)ncnc2cc1O[C@H]1CCOC1 [Afatinib]	-54.76 SD
COC1=CC(c2cc3ccccc3[nH]2)=N/C1=C\c1[nH]c(C)cc1C [Obatoclax mesylate]	−10.02 SD
CN1CCN(c2ccc3nc(-c4c(N)c5c(F)cccc5[nH]c4=O)[nH]c3c2)CC1 [Dovitinib]	−22.96 SD
CCc1c2c(nc3ccc(OC(=O)N4CCC(N5CCCCC5)CC4)cc13)-c1cc3c(c(=O)n1C2)COC(=O)[C@]3(O)CC.Cl [Irinotecan HCI]	−7.65 SD
N#Cc1c(O)c2c(-c3ccc(-c4ccccc4O)cc3)csc2[nH]c1=O [A-769662]	−22.81 SD
NC(=O)Nc1sc(-c2ccc(F)cc2)cc1C(N)=O [TPCA-1]	4.7 SD
CNCc1ccc(-c2[nH]c3cc(F)cc4c3c2CCNC4=O)cc1 [Rucaparib]	−3.34 SD
COc1cc(Nc2ncc(F)c(Nc3ccc4c(n3)N(COP(=O)(O)O)C(=O)C(C)(C)O4)n2)cc(OC)c1OC [Fostamatinib]	−4.27 SD
C[C@]12CC[C@@H]3c4ccc(O)cc4CC[C@H]3[C@@H]1CCC2=O [Estrone]	−21.19 SD
COC1=C(OC)C(=O)C(C/C=C(\C)CC/C=C(\C)CC/C=C(\C)CC/C=C(\C)CC/C=C(\C)CC/C=C(\C)CC/C=C(\C)CC/C=C(\C)CC/C=C(\C)CCC=C(C)C)=C(C)C1=O [Coenzyme Q10]	−4.69 SD
Cc1cccc(Nc2nc(-c3ccncc3)cs2)c1 [STF-62247]	−24.47 SD
CC(C)(C)Cn1c(N)nc2ccc(-c3[nH]c(C(C)(C)C)nc3-c3ccc(F)cc3)nc21 [LY2228820]	−30.98 SD
O=C(O)C(Cc1c[nH]c2ccccc12)N1C(=O)c2ccccc2C1=O (centres unmarked) [RG108]	−0.52 SD
Nc1ccc(-c2ccc3ncc4ccc(=O)n(-c5cccc(C(F)(F)F)c5)c4c3c2)cn1 [Torin 2]	−37.17 SD
Cc1ccc(C(=O)N(CCCN)[C@@H](c2oc3cc(Cl)ccc3c(=O)c2Cc2ccccc2)C(C)C)cc1 [SB 743921]	−4.09 SD
COCCn1c2c([n+](Cc3cnccn3)c1C)C(=O)c1ccccc1C2=O [YM155]	−1.58 SD
C/C(=C\c1csc(C)n1)[C@@H]1C[C@@H]2O[C@@H]2CCC[C@H](C)[C@H](O)[C@@H](C)C(=O)C(C)(C)[C@@H](O)CC(=O)O1 [Epothilone A]	16.97 SD

same assay, conditions: OVCAR-8; drug 100 nM; panel of 18 siRNA knockdowns

Compound	synergy / antagonism of drug with gene knockdowns, in words
CN(C)Cc1c(C(=O)NCCOc2ccc(C(=O)NO)cc2)oc2ccccc12 [PCI-24781]	mostly synergistic
C=CCn1c(=O)c2cnc(Nc3ccc(N4CCN(C)CC4)cc3)nc2n1-c1cccc(C(C)(C)O)n1 [MK-1775]	Frequently among the top synergizing pairs
Nc1ccccc1NC(=O)c1ccc(CNc2nccc(-c3cccnc3)n2)cc1 [Mocetinostat]	frequently antagonized by knockdown of specific genes

same assay, conditions: OVCAR-8; drug 100 nM; siRNA knockdown

Compound	number of genes (of 18) whose knockdown synergizes with the drug	number of genes (of 18) with high synergy with the drug
CN(C)Cc1c(C(=O)NCCOc2ccc(C(=O)NO)cc2)oc2ccccc12 [PCI-24781]	12 genes	–
C=CCn1c(=O)c2cnc(Nc3ccc(N4CCN(C)CC4)cc3)nc2n1-c1cccc(C(C)(C)O)n1 [MK-1775]	–	13 genes
